Results published in US7592326B2, “Method for stimulating the immune, inflammatory or neuroprotective response” (priority 2004, dated 2009).

Tests used:
human basophils [1] = assay: IgE-dependent IL-4 secretion by human basophils; format: cell-based
Description: (§1) Studies investigating the effect of the TBDMS-cGpGp analog on IgE-dependent IL-4 and histamine secretion induced by cross-linking were then performed. […] The inhibition of IL-4 was evident using the TBDMS-cGpGp analog as well as the cGpAp analog. Note that IgE-mediated histamine release is 90% complete within 20 minutes after stimulation- histamine is preformed and store in cytoplasmic granules. Although IL-4 is not preformed, it is rapidly generated denovo and secreted within 3-6 hours. In performing these experiments, a standard protocol for testing various anti-allergic drugs was used.
(§2) Specifically, the basophils were pretreated 15 minutes with the analogs before adding anti-IgE antibody for activation. Culture supernatants were analyzed for histamine and IL-4 three hours later. Thus, unlike the IL-13 induced by IL-3 during an 18-20 h culture, the release of histamine and IL-4 are far more rapid under IgE crosslinking conditions. It may be that inhibition would be greater if a greater pre-incubation time was performed with the analogs. Additional experiments will test different pre-incubation times to determine whether greater inhibition is observed. It is important to note that neither analog induced histamine release or IL-4 when used alone at the 50 uM concentration. T this is additional evidence that the inhibitory effect in not due to toxicity- histamine would most likely be released if the analogs were causing cell lysis.
IL-4 measurements were made in an experiment where the cyclic dinucleotide analogs were tested in a 1 hour pretreatment of basophils before activating with anti-IgE antibody. The control release to anti-IgE antibody was 262 pg/106 basophils (a relatively robust response being that cell responsiveness decreases the longer the wait before activating). Both the TBMDS-cGpGp and cGpAp analogs produced ˜30% inhibition at the 50μM concentration. […] It may be that overnight incubation with cyclic dinucleotide (similar to the IL-13 inhibition studies) would show even greater inhibition.

human basophils [2] = assay: IL-3 dependent IL-13 secretion by human basophils; format: cell-based; conditions: for inhibition of IL-13 induced by IL-3: 18-20 h culture, FIG. 18A
[3] = format: in vitro ADME, human
Description: Commercially supplied pooled human serum (100 uL) (Cambrex Bio Science Walkersville, Inc.) was diluted in ion-exchanged water. An aliquot of the resulting human serum solution was subjected to HPLC analysis (conditions: COSMOSIL 5C18-AR-II column (4.6×200 mm); buffer A; buffer B, 80% acetonitrile in water; gradient, 0-10 min A 100%, 10-60 min A:B=100:0 to A:B=40:60 in 50 min; detection 254 nm, flow rate, 1.0 mL/min, temperature 40° C.). Separately, a 100 uM of c-di-GMP solution in human serum was prepared by adding 100 uL of a 500 uM c-di-GMP aqueous solution to a mixture of 390 uL of human serum and 10 uL of 40 mM 2-methylbenzimidazole (an internal standard for estimating the extent of decomposition of c-di-GMP) in methanol. An aliquot of the test solution was diluted immediately after the preparation solution and then heated at 100° C. for 5 min to quench activity of enzymes. The resulting test sample was subjected to HPLC analysis after 24 h treatment. Peaks that appeared in both analyses were compared. Results are based on 3 independent experiments.

human basophils [4] = assay: IgE-dependent histamine release by human basophils; format: cell-based; conditions: 15 minutes pretreatment
Description: as §1
as §2, with “T this is additional evidence that the inhibitory effect in not due to toxicity- histamine would most likely be released if the analogs were causing cell lysis.” left out

pDC = assay: Cytokine secretion by pDC treated with TBDMS analog; format: cell-based, human
Description: Whether or not TBDMS would directly induce (or affect CpG-dependent) cytokine (IL-6, TNF-alpha, IL-10) secretion was then tested. […] IL-6 was not measured. […] Cells from one of the 3 subjects did secrete 100-200 pg/10^6 cells more TNF-alpha than the ˜400 secreted in medium alone. The same pattern was seen using these cells when the combination of CpG and TMDMS was used. However, these effects were not evident for the other two pDC preparations.

basophils = assay: SOCS expression in basophils (real-time PCR); format: cell-based, human
Description: Whether or not cyclic dinucleotides affected induction of SOCS (Suppresser Of Cytokine Synthesis) expression in basophils treated with CDN's was then tested. […] Cells were treated for 18 h, total RNA isolated, and RT-PCR performed for SOCS-1, SOCS-3, and the HPRT housekeeping gene. The fact that cGpGp also induces SOCS-1 may explain why some inhibition of IL-3-induced IL-13 secretion is observed with this cyclic dinucleotide analog. […] In the current IL-13 assay, the cyclic dinucleotide is added simultaneously with IL-3. The TBDMS-cGpGp likely induces SOCS-1 expression faster and thus accounts for greater inhibition of IL-13. […] While modest inhibitory activity with cGpGp was observed, evidence that cGpGp induces SOCS-1 and sometimes better than TBDMS-cGpGp at this particular time point was observed. These differences might be explained by kinetics and it may be that SOCS gene expression would be higher following TBDMS-cGpGp treatment when examined at an earlier time point.

lung leukocytes = assay: Lung leukocyte accumulation in Klebsiella-infected mice (lung digest, flow cytometry); format: in vivo, Balb/c mice
[5] = tested on: Primary hippocampal cells; assay: Staurosporine-induced cell death in primary hippocampal cultures (CellTiter 96 AQueous Assay); format: cell-based; conditions: 100 nM, 22 h
Description: To assess the role of cyclic dinucleotides in modulating the neurological response, i.e., prevent cell death induced by staurosporine (STS) in primary hippocampal nerve cells, the effects of c-di-GMP on hippocampal cells was analyzed. Primary hippocampal cells were prepared according to previously described methods (Pereira et al., 1993). Briefly, the hippocampi were dissected from the brain of 18-day-old fetal rats. Following enzymatic and mechanical dissociation, cells were plated at a density of 100,000 cells/well in 96-well plates pre-coated with matrigel. At the 7th day after plating, cultures were subjected to one of the following treatments: (i) vehicle (24 h), (ii) STS (100 nM, 22 h), (iii) c-di-GMP (24 h), (iv) c-di-GMP (2 h) followed by c-di-GMP -plus-STS (22 h), (v) c-di-GMP -plus-STS (24 h), or (vi) STS (2 h) followed by c-di-GMP -plus-STS (22 h). At the end of the treatments, cell viability was analyzed using CellTiter 96® AQueous Assay (Promega). The assay involves the spectrophotometric measurement (at 490 nm) of the mitochondrial conversion of a tetrazolium dye into a colorful product. The absorbance of the assay correlates with the number of metabolically active cells.

[6] = 50 uM, 15 minutes pretreatment, supernatants three hours later, FIG. 18B
[7] = 50μM, 1 hour pretreatment, control release 262 pg/106 basophils

SMILES: Nc1nc2c(ncn2[C@@H]2O[C@@H]3COP(=O)(O)O[C@H]4[C@@H](O)[C@H](n5cnc6c(N)ncnc65)O[C@@H]4COP(=O)(O)O[C@H]3[C@H]2O)c(=O)[nH]1 [cGpAp]
- inhibition of IgE-dependent IL-4 (human basophils [1]; [6]): evident
- inhibition of IgE-dependent IL-4 (human basophils [1]; [7]): ~30%
- effect on IL-13 induced by IL-3 (human basophils [2]; under the conditions tested): little effect

SMILES: Cc1nc2ccccc2[nH]1 [2-methylbenzimidazole, reference compound]
- stability in human serum [3]: stable
- solubility in water, methanol, and acetonitrile (Solubility): fairly soluble

SMILES: Nc1nc2c(ncn2[C@@H]2O[C@@H]3COP(=O)(O)O[C@H]4[C@@H](O)[C@H](n5cnc6c(=O)[nH]cnc65)O[C@@H]4COP(=O)(O)O[C@H]3[C@H]2O)c(=O)[nH]1 [cGpIp]
- enhancement of IL-13 induced by IL-3 (human basophils [2]; two experiments): 25%

SMILES: CC(C)(C)[Si](C)(C)O[C@@H]1[C@@H]2OP(=O)(O)OC[C@H]3O[C@@H](n4cnc5c(=O)[nH]c(N)nc54)[C@H](O)[C@@H]3OP(=O)(O)OC[C@H]2O[C@H]1n1cnc2c(=O)[nH]c(N)nc21 [TBDMS-cGpGp, 2′-O-TBDMS-c-di-GMP]
- inhibition of IgE-dependent IL-4 (human basophils [1]; [6]): 30%
- inhibition of IgE-dependent IL-4 (human basophils [1]; [7]): ~30%
- inhibition of IL-13 induced by IL-3 (human basophils [2]; 10 micromolar): 30-40%
- inhibition of IL-13 induced by IL-3 (human basophils [2]; 50 micromolar, at least 5 independent experiments): 70-80%
- effect on IgE-dependent histamine release (human basophils [4]): essentially no effect
- effect on TNF-alpha and IL-10 (pDC; alone or with CpG): little to no effect
- TNF-alpha secreted above the ˜400 in medium alone (pDC; cells from one of the 3 subjects): 100-200 pg/10^6 cells
- IL-10 secretion (pDC; used by itself, n=3): did not cause IL-10 secretion
- time of SOCS mRNA peak (basophils): ~12 h
- SOC-3 mRNA (basophils; 18 h treatment): induced
- SOCS-1 mRNA (basophils; 18 h treatment): induced

SMILES: Nc1nc2c(ncn2[C@@H]2O[C@@H]3COP(=O)(O)O[C@H]3[C@H]2O)c(=O)[nH]1 [CTL, reference compound]
- Total number lung cells (lung leukocytes; i.n. pretreatment 48 and 24 hr prior, lung digests 48 hrs after K. pneumoniae (kp), uninfected 2.7 × 10^7): 3.57 × 10^7
- αβTcr^+, CD69^+ (lung leukocytes; lung digests 48 hrs after kp, uninfected 0.33 × 10^5): 2.7 × 10^5
- DX5^+, CD69^+ (lung leukocytes; lung digests 48 hrs after kp, uninfected 0.78 × 10^5): 2.7 × 10^5
- PMN (lung leukocytes; lung digests 48 hrs after kp, uninfected 0.8 × 10^6): 7.35 × 10^6
- DX5^+ (NK) (lung leukocytes; lung digests 48 hrs after kp, uninfected 1.3 × 10^6): 2.5 × 10^6
- DX5^+, αβγδTcr^+(NK T^+) (lung leukocytes; lung digests 48 hrs after kp, uninfected 1.6 × 10^5): 4.7 × 10^5
- Mono/Macrophage (lung leukocytes; lung digests 48 hrs after kp, uninfected 2.3 × 10^7): 2.88 × 10^7
- αβTcr^+ (lung leukocytes; lung digests 48 hrs after kp, uninfected 2.6 × 10^6): 3.38 × 10^6

SMILES: CN[C@@H]1C[C@H]2O[C@@](C)([C@@H]1OC)n1c3ccccc3c3c4c(c5c6ccccc6n2c5c31)C(=O)NC4 [STS, staurosporine, reference compound]
- cell death in primary hippocampal cultures [5]: caused significant cell death
